Data set [1] deals with T1, Phosphatidylinositol 4,5-bisphosphate 3-kinase catalytic subunit delta isoform (Homo sapiens, UniProt O00329).
T1 sequence (O00329 whole entry): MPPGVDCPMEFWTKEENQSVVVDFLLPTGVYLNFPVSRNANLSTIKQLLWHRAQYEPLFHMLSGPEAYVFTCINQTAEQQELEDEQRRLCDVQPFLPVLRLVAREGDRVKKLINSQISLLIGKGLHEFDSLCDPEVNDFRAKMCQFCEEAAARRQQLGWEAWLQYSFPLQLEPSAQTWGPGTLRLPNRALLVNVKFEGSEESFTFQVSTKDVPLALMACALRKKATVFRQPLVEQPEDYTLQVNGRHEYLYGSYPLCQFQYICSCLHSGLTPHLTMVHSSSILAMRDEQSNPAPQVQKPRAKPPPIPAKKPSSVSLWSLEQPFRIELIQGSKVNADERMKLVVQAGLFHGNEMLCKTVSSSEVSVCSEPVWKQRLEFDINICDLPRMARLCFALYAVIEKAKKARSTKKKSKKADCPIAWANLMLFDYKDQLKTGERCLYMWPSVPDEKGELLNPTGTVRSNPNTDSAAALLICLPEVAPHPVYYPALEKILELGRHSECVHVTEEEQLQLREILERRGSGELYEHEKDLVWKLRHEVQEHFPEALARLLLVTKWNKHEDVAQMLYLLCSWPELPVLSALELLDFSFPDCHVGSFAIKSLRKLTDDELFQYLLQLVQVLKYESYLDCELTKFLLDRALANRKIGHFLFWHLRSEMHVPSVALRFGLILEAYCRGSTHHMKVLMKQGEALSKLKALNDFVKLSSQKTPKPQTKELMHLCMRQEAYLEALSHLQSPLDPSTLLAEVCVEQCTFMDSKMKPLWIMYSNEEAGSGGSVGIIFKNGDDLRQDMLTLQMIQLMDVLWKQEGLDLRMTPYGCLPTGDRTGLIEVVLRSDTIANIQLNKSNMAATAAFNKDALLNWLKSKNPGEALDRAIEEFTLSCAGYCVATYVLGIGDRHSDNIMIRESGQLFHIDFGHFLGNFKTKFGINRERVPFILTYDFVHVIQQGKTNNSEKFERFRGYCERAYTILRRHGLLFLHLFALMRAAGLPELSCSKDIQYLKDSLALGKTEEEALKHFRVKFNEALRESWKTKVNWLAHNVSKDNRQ
Put plainly: Inhibition of PI3Kdelta in human whole blood assessed as reduction in antihuman IgE antibody-stimulated CD63 expression preincubated for 30 mins followed by antihuman IgE antibody stimulation and measured after 20 mins by FACS analysis. It is filed as tissue-based. A general note: A flow cytometer gives signals particle by particle.

The nature of data set [2]: Toxicity in Beagle dogs assessed as vascular injury at 25 mg/kg administered for 8 days. As to conditions: dog, in vivo, 192 h. Type of data set: organism-based, Canis lupus familiaris.
Data set [3] can be described thus: Protein binding in human plasma. It is filed as ADME, cell-free. The following applies: read-out: PPB (converted).
Data set [4] is described as follows: fCmax in rat at 750 mg/kg administered for 4 days. Type of data set: ADME, organism-based. As to conditions: in vivo, 96 h.
Data set [5] is described as follows: Toxicity in Beagle dogs assessed as body weight loss at 25 mg/kg administered for 8 days. It is filed as organism-based, Canis lupus familiaris. The following applies: dog, in vivo, 192 h.
Data set [6] has as its system Rattus norvegicus. Put plainly: Hemodynamic activity in telemetered rat assessed as effect on arterial blood pressure at 60 mg/kg. It is filed as ADME, organism-based. The following applies: in vivo.
The nature of data set [7]: Inhibition of adenosine transporter in human HeLa cells assessed as reduction in [3H]adenosine uptake preincubated for 30 mins followed by [3H]adenosine addition and measured after 60 mins. Type of data set: ADME, cell-based.
Data set [8] is described as follows: Volume of distribution in Beagle dog. As to conditions: in vivo. Type of data set: ADME, Canis lupus familiaris.
Data set [9] in a line: Unbound volume of distribution in Beagle dog. Type of data set: ADME, Canis lupus familiaris. As to conditions: in vivo.
Data set [10] is described as follows: fAUC in telemetered rat at 60 mg/kg. Type of data set: ADME, organism-based. The following applies: in vivo.
Data set [11] is described as follows: Cardiovascular toxicity in rat assessed as vascular injury at 750 mg/kg for 4 days. It is filed as organism-based. As to conditions: in vivo, 96 h.
For the next data set, the species on record is Homo sapiens. The data set is described as follows: Selectivity ratio of IC50 for N-terminal His6-tagged recombinant full length human PI3Kgamma expressed in baculovirus infected Sf21 cells to IC50 for N-terminal His6-tagged recombinant full length human p110delta/untagged recombinant full length human p85alpha expressed in baculovirus infected Sf21 insect cells.

The next data set deals with Phosphodiesterase 3 (Homo sapiens, UniProt Q14432+Q13370). The data set is described as follows: Inhibition of PDE3 (unknown origin). Type of data set: protein assay.
Data set [12] can be described thus: Unbound volume of distribution in Wistar Han rat. Type of data set: ADME. The following applies: in vivo.
A short description of data set [13]: Toxicity in Beagle dog assessed as decrease in RBC count at 25 mg/kg administered for 8 days. It is filed as organism-based, Canis lupus familiaris. As to conditions: in vivo, 192 h.
In the next data set the target is Phosphodiesterase 4 (Homo sapiens, UniProt P27815+Q08499+Q07343+Q08493). The data set is described as follows: Inhibition of PDE4 (unknown origin). Type of data set: protein assay.
The target of data set [14] is PI3-kinase p110-delta/p85-alpha (Homo sapiens, UniProt O00329). The data set is described as follows: Inhibition of N-terminal His6-tagged recombinant full length human p110delta/untagged recombinant full length human p85alpha expressed in baculovirus infected Sf21 insect cells using PIP2 as substrate preincubated for 15 mins followed by substrate addition and measured after 1 hr by HTRF assay. In general terms: In TR-FRET formats the signal depends on donor and acceptor labels being close together.
Chain of PI3-kinase p110-delta/p85-alpha (P27986 whole entry, one chain of several): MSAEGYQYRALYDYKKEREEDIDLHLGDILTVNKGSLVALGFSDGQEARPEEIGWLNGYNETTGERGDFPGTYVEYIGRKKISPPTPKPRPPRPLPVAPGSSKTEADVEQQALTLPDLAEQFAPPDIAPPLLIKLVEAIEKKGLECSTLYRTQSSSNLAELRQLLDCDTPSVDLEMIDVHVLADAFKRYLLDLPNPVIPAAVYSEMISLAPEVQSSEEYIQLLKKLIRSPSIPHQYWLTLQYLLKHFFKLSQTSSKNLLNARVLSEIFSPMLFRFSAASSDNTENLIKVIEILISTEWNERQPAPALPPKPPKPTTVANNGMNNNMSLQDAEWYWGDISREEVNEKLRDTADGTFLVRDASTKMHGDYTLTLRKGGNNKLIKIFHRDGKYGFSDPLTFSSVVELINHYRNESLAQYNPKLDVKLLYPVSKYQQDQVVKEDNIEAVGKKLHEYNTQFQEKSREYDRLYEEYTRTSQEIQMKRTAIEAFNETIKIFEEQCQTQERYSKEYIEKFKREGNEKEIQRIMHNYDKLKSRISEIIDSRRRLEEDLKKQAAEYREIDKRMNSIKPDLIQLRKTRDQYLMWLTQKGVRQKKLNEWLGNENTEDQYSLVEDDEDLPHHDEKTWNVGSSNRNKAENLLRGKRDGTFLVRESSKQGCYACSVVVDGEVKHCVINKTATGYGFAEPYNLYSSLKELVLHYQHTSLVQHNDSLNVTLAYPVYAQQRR

Data set [15] has as its target High affinity cAMP-specific and IBMX-insensitive 3',5'-cyclic phosphodiesterase 8A (Homo sapiens, UniProt O60658). The data set is described as follows: Inhibition of PDE8 (unknown origin).
Data set [16] is described as follows: Half-life in Beagle dog. It is filed as ADME, Canis lupus familiaris. As to conditions: in vivo.
Data set [17] has as its system Rattus norvegicus. Put plainly: Hemodynamic activity in telemetered rat assessed as effect on heart rate at 60 mg/kg. As to conditions: in vivo. It is filed as ADME, organism-based.
A short description of data set [18]: Oral bioavailability in Wistar Han rat. Type of data set: ADME, organism-based. As to conditions: in vivo.

Chain of High affinity cAMP-specific and IBMX-insensitive 3',5'-cyclic phosphodiesterase 8A (O60658 whole entry): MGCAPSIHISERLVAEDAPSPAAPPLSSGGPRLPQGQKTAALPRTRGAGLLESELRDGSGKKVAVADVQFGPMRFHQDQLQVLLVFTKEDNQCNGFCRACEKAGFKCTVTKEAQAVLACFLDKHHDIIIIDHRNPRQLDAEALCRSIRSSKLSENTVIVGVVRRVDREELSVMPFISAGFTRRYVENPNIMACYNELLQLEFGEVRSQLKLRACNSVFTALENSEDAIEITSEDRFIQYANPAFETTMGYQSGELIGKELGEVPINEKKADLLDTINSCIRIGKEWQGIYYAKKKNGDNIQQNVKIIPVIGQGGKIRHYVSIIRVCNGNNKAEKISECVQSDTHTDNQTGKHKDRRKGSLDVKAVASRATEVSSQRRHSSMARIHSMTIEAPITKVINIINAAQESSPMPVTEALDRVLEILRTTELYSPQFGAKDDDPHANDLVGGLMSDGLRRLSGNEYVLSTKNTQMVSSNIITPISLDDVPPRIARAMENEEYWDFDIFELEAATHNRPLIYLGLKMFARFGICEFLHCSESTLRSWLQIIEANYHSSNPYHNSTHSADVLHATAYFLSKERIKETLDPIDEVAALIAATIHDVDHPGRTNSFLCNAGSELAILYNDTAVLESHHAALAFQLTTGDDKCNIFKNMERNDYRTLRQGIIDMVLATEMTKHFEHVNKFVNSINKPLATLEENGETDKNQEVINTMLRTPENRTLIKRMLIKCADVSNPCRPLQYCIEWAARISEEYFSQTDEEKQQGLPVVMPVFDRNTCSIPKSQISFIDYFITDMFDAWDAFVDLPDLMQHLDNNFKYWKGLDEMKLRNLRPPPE

By IC50 is commonly meant the point on the concentration scale where inhibition reaches its midpoint. In general, Vd refers to a proportionality between amount in the body and measured concentration, not a real space. A high value points to wide distribution into tissue. Usually half-life stands for how long it takes for the measured level to halve. High values mean slow decline, low ones rapid decline. Broadly, the bioavailability is the share of a dose that reaches the circulation, judged against a reference dose that is usually intravenous. `CCn1ncc(-c2nc3c(O[C@H]4CCN(C(=O)C5CCOCC5)C4)ncnc3n2C)c1C`: the IC50 in [1] was 0.415 µM; in data set [7] it was greater than 10 µM; at Phosphodiesterase 3, greater than 50 µM; at Phosphodiesterase 4, greater than 50 µM; in data set [14] it was 0.0039 µM; in data set [15] it was greater than 50 µM. Further, the Activity entry (in data set [2]; in data set [5]; in the data set on Rattus norvegicus [6]; in data set [11]; in data set [13]; in the data set with Rattus norvegicus [17]) was “Non-Toxic” in each case. The fraction unbound in data set [3] was 0.83. For the same compound, the fCmax in [4] amounted to 200 µM. For the same compound, in data set [8], the Vd was found to be 0.9 L/kg. Moreover, the results for the Vdu in data set [9] and in data set [12] were 3 L/kg and 2 L/kg, respectively. The fAUC in [10] was found to be 61 µM·h. In addition, the Ratio IC50 in the data set filed under Homo sapiens was 970. In data set [16], the half-life was 1.5 h. This compound came in with a bioavailability in data set [18] of 55%.

The values are drawn from ChEMBL document CHEMBL4346703, “Structure Overhaul Affords a Potent Purine PI3Kδ Inhibitor with Improved Tolerability” (J Med Chem, 2019).
